Data from article PMC3438169 (PLoS ONE, 2012).
“Also recorded” adds a separate entry of the source. *1 amine or outer side, *2 acyl side, *3 side chain or, on linkers, in order; H or OH if unused. Where a SMILES comes first, the peptide text is derived from it. [ ]: non-standard residue; d: D form. dAla(ψthiazole) = C[C@@H](N[*:1])c1nc(C(=O)[*:2])cs1; Trp(4-OMe) = COc1cccc2[nH]cc(C[C@H](N)C(=O)O)c12; dAbu = CC[C@@H](N)C(=O)O; Dha = C=C(N)C(=O)O; Sar = CNCC(=O)O

How the values were obtained:
P. aeruginosa EF-G1 = biological target: T1, P. aeruginosa EF-G1 (Pseudomonas aeruginosa, UniProt Q9HWD2); assay: Surface plasmon resonance (SPR); assay type: binding
T1 construct: P. aeroginosa fusA1 encoding full-length EF-G was PCR amplified from pET28a-PaEFG-Nhis; made in house; host or cells: E. coli BL21 (DE3)
T1 sequence (Q9HWD2 whole entry): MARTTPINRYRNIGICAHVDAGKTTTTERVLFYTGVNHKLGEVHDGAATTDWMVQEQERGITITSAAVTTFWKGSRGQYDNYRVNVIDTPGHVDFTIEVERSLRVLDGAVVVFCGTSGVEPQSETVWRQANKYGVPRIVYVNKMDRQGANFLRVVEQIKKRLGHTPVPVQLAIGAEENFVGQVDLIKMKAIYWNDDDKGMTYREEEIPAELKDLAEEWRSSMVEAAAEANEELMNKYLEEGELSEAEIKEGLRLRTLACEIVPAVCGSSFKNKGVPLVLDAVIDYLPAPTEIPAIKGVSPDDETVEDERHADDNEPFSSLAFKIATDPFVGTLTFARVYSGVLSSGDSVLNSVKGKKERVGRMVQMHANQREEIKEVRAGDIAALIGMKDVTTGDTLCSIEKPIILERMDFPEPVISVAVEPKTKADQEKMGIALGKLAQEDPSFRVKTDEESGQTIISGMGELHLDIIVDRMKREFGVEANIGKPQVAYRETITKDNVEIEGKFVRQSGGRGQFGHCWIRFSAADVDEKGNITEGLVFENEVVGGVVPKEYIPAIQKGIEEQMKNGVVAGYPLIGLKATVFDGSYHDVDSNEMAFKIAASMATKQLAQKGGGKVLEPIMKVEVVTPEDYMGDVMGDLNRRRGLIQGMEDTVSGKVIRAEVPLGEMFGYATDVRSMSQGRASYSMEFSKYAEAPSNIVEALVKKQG
Text: For wild type P. aeruginosa EF-G1 expression, the fusA gene was amplified from genomic DNA of P. aeruginosa PAO1 K767 using the primer pair EFG-F/EFG-R: […]/[…]. The product was digested with NdeI and HindIII and ligated into similarly digested pET28a to generate pET28a-PaEFG-Nhis. This plasmid was then used for site directed mutagenesis to introduce the nucleotide change encoding EF-G1S459F (pET28a-PaEFGS459F-Nhis). The plasmids were then transformed into an E. coli strain BL21 (DE3) for expression. A single colony was used to inoculate 10 ml LB broth containing 50 µg/ml kanamycin which was incubated at 37°C overnight, with shaking at 250 rpm. The overnight culture was then diluted 100-fold into 1 liter fresh LB broth containing 50 µg/ml kanamycin. After growing at 37°C with vigorous shaking for about 2.5 hours, expression of P. aeruginosa EF-G1 or EF-G1S459F was then induced by adding 0.1 mM IPTG, with further culture incubation at 18°C for 24 hours. Cells were then pelleted by centrifugation at 5,000 rpm with Sorvall SLC-6000 rotor and stored at −20°C. Cell pellets were then resuspended in 20 ml of BugBuster solution (Novagen) and incubated at room temperature for 20 minutes. […] The protein in the fractions was monitored by UV absorbance at 280 nm. […] Protein concentration was determined by Nano-drop spectrophotometer. […]

[1] = tested on: recombinant human mEF-G1 S452L; assay: Biacore binding, human mEF-G1 S452L; conditions: 10, 20, 40 µM, HBS-P+ pH 7.4, 4% DMSO
Text: (§1) GFM1 encoding the active site of EF-G1 (residues 36–751) was PCR amplified from pDONR221 constructs using primers (GGGGACAAGTTTGTACAAAAAAGCAGGCTTAATGTCTTCATCAGGGGTGATT, GGGGACCACTTTGTACAAGAAAGCTGGGTATTAGTTCTTGGCTTTTCC). P. aeroginosa fusA1 encoding full-length EF-G was PCR amplified from pET28a-PaEFG-Nhis using primers (GGGGACCACTTTGTACAAGAAAGCTGGGTATTATCAACCTTGTTTTTT, GGGGACAAGTTTGTACAAAAAAGCAGGCTTAATGGCCCGTACTACACCC). Purified PCR products were cloned into the pDONR221 vector using Gateway cloning and BP Clonase II (Invitrogen), shuttled into an E.coli protein expression vector for N-terminal tagging (Avitag-His6 vector) using LR Clonase II (Invitrogen), and verified by sequencing. Avitag-His6-hEF-G1 and Avitag-His6-PaEF-G constructs were transformed into BL21-AI cells (Invitrogen) and isolated single colonies were used to inoculate 5 ml cultures which were grown overnight at 37°C with shaking. […]. Briefly, protein was captured on column using binding buffer (50 mM Tris; pH 7.5, 300 mM NaCl, 20 mM imidazole, 10% glycerol), washed extensively with washing buffer (50 mM Tris; pH 7.5, 500 mM NaCl, 30 mM imidazole, 10% glycerol), and then eluted with elution buffer (50 mM Tris; pH 7.5, 500 mM NaCl, 250 mM imidazole, 10% glycerol). […]

[2] = tested on: recombinant human mEF-G1 L693Q; assay: Biacore binding, human mEF-G1 L693Q; conditions: 10, 20, 40 µM, HBS-P+ pH 7.4, 4% DMSO
Text: as §1

For C=C1NC(=O)CN(C)C(=O)CNC(=O)[C@H](Cc2c[nH]c3cccc(OC)c23)NC(=O)[C@H](Cc2c[nH]c3ccccc23)NC(=O)c2csc(n2)[C@@H](C)NC(=O)[C@@H](CC)NC1=O [argyrin B] (cyclo([dAbu][dAla(ψthiazole)]W[Trp(4-OMe)]G[Sar][Dha])), the “Binding to purified P. aeruginosa EF-G (in words)” value (P. aeruginosa EF-G1) was “bound purified P. aeruginosa EF-G tightly; also recorded: Very tight binding”, the “Binding to human mEF-G1 (in words)” value [1] was “still bound” and the “Binding to human mEF-G1 (in words)” value [2] was “little binding detected”.
